Test results taken from patent US6303596A, “Use of taurolidine for treatment of leukemias” (priority 2000, dated 2001).

What was measured:
Format in all cases: cell-based, human
TNFα = experiment: LPS-induced TNFα expression/secretion by PBMC, ELISA; details: taurolidine 100 μg/ml, 4 h
Protocol: FIG. 3A and FIG. 3B are graphs depicting taurolidine inhibition of LPS-induced alpha […] (TNFα) expression by monocytic cells as determined by assay procedures. FIG. 3A represents MM6 cells; FIG. 3B represents PBMC. The cells were induced with LPS (hatched bars: 100 ng/ml LPS in RPMI+10% BCS; solid bars: 10 ng/ml in AIM-V+0.01% BCS) in the presence of varying concentrations of taurolidine. After four hours, cell supernatants were collected for TNFα ELISA. Data are expressed as percent of TNFα levels measured in cell cultures treated with LPS alone (no taurolidine or vehicle). Experiments were performed with duplicate samples and were repeated at least three times. Values shown in FIG. 3A are from a representative experiment. Values shown in FIG. 3B are mean±SEM of three experiments.
Human peripheral blood mononuclear cells (PBMC) were isolated from heparinized blood by centrifugation using Histopaque as per manufacturer's instructions. The isolated PBMC were suspended in RPMI supplemented with 10% BCS and were used in experiments immediately thereafter. As determined by flow cytometry, PBMC were typically 11±2% monocytes and 80±13% lymphocytes, with the remaining cytometric events consistent in size with platelets and cell aggregates. […]

Monocytes = experiment: TUNEL / propidium iodide flow cytometry, monocytes in PBMC, culture medium
Protocol: FIG. 14A and FIG. 14B are terminal deoxytransferase-mediated deoxyuridine-triphosphate-biotin nick end labeling assay (TUNEL) analyses of control cells and taurolidine-treated PBMC, respectively. Cells were incubated with 100 μg/ml taurolidine for six hours and processed for TUNEL analysis as given below. Parallel samples were stained with FITC-conjugated anti-CD14 and propidium iodide (PI) as described below. Ten thousand events were recorded per sample. TUNEL signal (x-axis) is a measure of DNA fragmentation, which FSC (y-axis) is related to cell size. TUNEL-negative lymphocytes are bounded by the rectangle R1, while TUNEL-negative monocytes (CD14 positive cells) are bounded by the rectangle R2. The vertical line indicates demarcation between TUNEL-negative and TUNEL-positive cells. There were minimal numbers of PI-positive cells in the six hour samples (see Table IV).
(§1) In the second method, DNA fragmentation was detected via TUNEL assay according to the manufacturer's instructions. With this methodology, 2×10^6 cells were fixed with 2% paraformaldehyde, permeabilized with 0.1% Triton X-100/0.1% citrate, incubated at 37° C. with terminal deoxynucleotidyl transferase and FITC-dUTP, rinsed and analyzed by flow cytometry. Enhanced FITC signal indicates apoptosis-specific DNA fragmentation. Gavriali, et al, "Identification of programmed cell death in situ via specific labeling of nuclear DNA fragmentation," J Cell Biol 119:493 (1992). Parallel aliquots of unfixed cells were treated with PI and FITC-conjugated anti-CD14 and analyzed by flow cytometry, in order to identify cells with permeable cell membranes (since PI binds to DNA but is excluded from cells with intact plasma membranes) and also to determine the cell-specificity of the apoptotic signal.
A Becton-Dickinson FACSCalibur instrument was used for flow cytometric analysis of cells. Assessment of cell diameter (forward scatter; FCS) and granularity (side scatter; SSC).was carried out on unfixed cells. Discrimination between lymphocytes and monocytes was made possible by their characteristic differences in FSC and SSC, and confirmed by staining monocytes with FITC-labeled anti-CD14 antibodies and lymphocytes with a combination of FITC-conjugated anti-CD3 and PE-conjugated anti-CD19. After incubation with taurolidine (with or without concomitant LPS treatment), cells were rinsed twice in phosphate-buffered saline containing 0.1% bovine serum albumin (PBSA) and 1×10^6 cells were resuspended in 0.1 ml PBSA. After 5 μl FITC-conjugated anti-CD14 was added, cells were incubated in the dark on ice for 15 minutes and then centrifuged at 250×g. Cells were resuspended in 500 μl PBSA containing 5 μg/ml PI and subjected to flow cytometry.
Consequently, TUNEL analysis was performed on PBMC at 3, 6, or 24 hours after treatment with 25 to 100 μg/ml taurolidine. Aliquots of harvested cells were also labeled with FITC-conjugated anti-CD14 antibodies and PI, which allowed identification of monocytes (CD14-positive cells) and cells with damaged cell membranes (PI-positive cells). […] Thus, nearly 75% of the monocytes were TUNEL-positive following treatment with 100 μg/ml taurolidine for six hours. Confirmation that the TUNEL-positive cells were monocytes was obtained by staining with FITC-conjugated anti-CD14.
^a Analysis by flow cytometry after staining cells with FITC-conjugated
anti-CD14 and PI, and processing for TUNEL. Data are mean ± SD of two
^b Percent of cells present in the TUNEL-negative region in control

K562 = experiment: TUNEL / propidium iodide flow cytometry, K562; details: taurolidine 100 μg/ml or anisomycin 1 μg/ml for 4 h, assayed at 24 hours, mean ± SD
Protocol: as §1
In another study, TUNEL assays were performed on all cell lines 6 hours after cells were initially exposed to taurolidine (cells were treated for 4 hours, rinsed, and then incubated for 2 more hours before TUNEL assay was performed).
. Taurolidine and anisomycin induced apoptosis in MM6, HL-60, and Jurkat cells (Table VIII). MM6 and HL-60 cells were similarly effected, with >80% TUNEL-positive cells after 6 hours. Jurkat cells were less sensitive, with approximately 50% of cells induced to undergo apoptosis after taurolidine treatment. After 6 hours, 73% of anisomycin-treated REH cells were apoptotic, with less than 20% of taurolidine-treated REH cells being TUNEL-positive. However, assay of cells 24 hours after
^a Analysis by flow cytometry after staining cells with propidium
iodide and processing for TUNEL.
Data are percent of total cell-size events, and are expressed as mean ±
Cells were treated for 4 hours with taurolidine (100 μg/ml) or
anisomycin (1 μg/ml), and then assayed at 6 hours.
Data are percent of total cell-sized events, and are expressed as mean ±
anisomycin (1 μg/ml), and then assayed at 24 hours.

Compound: O=S1(=O)CCN(CN2CCS(=O)(=O)NC2)CN1 [taurolidine, 4,4'-methylenebis(perhydro-1,2,4-thiadiazin 1,1-dioxide)]
- inhibition of LPS-induced TNFα secretion (TNFα): maximally inhibit TNFα secretion
- TUNEL-positive (apoptotic) monocytes (Monocytes; 100 μg/ml taurolidine, 6 h, culture medium, 360 min): approximately 75%
- induction of apoptosis at lower doses (Monocytes; 25 and 50 μg/ml taurolidine, versus 100 μg/ml): lower levels of induction of apoptosis
- cytotoxicity at 100 µg/mL (Monocytes; Homo sapiens, Monocyte, 100 μg/ml taurolidine, 6 h, culture medium, read-out: TUNEL-positive (apoptotic) monocytes): ~75%
- viability at 25 µg/mL (Monocytes; Homo sapiens, Monocyte, monocytes, 25 μg/ml, 6 h, percent of control, read-out: % TUNEL-Negative): 88.3 ± 2.7%
- viability at 50 µg/mL (Monocytes; Homo sapiens, Monocyte, monocytes, 50 μg/ml, 6 h, percent of control, read-out: % TUNEL-Negative): 67.8 ± 18%
- viability at 100 µg/mL (Monocytes; Homo sapiens, Monocyte, monocytes, 100 μg/ml, 6 h, percent of control, read-out: % TUNEL-Negative): 25.1 ± 11.8%
- onset of apoptosis after treatment (Monocytes; monocytes): detectable within four to six hours
- % TUNEL-positive (K562): approximately 20%
